# Data published in patent publication US12408604B2, “Method for producing avenanthramide-rich oats using active elicitors” (KOREA RESEARCH INSTITUTE OF BIOSCIENCE AND BIOTECHNOLOGY, priority 2020, dated 2025).
# Experiments:
# Assay type in all cases: in vivo
# Choyang oats = assay: Production (content) of avenanthramides in germinated oats treated with elicitors, HPLC analysis; conditions: for production of avenanthramides compared to control group: Example 3, FIG. 2, SA vs control DW, ABA vs control EtOH; for production of avenanthramides over tested concentrations: Example 5, MJ 10-100 μM, ABA 10-300 μM; for synthesis amount / content of avenanthramides in oats compared to other elicitors: Examples 3 and 4, FIG. 2
# Procedure: In an embodiment of the present invention, a domestic cultivated breed, Choyang oats, was used. The Choyang oat seeds were immersed for 12 hours, and then sterilized at 50° C. for 10 minutes and used. Two sheets of sterile filter paper were laid on a plant culture dish, poured with 7 ml of water, and then the sterilized Choyang oat seeds were placed and cold-treated at 4° C. for two days. The Choyang oat seeds were cultured under culture conditions of 25° C. and a photoperiod of 16L:8D.
# Analysis of avenanthramides of germinated oats recovered in Example of the present invention was performed as follows. First, the obtained germinated oats were powdered using liquid nitrogen. 0.1 g of the oat powder was extracted with 1 ml of 80% methanol, and then sonicated at 50° C. for 20 minutes, extracted, and then centrifuged to obtain an oat extract from an upper layer. The extracted filtrate was dried by injecting air, and the dried product was dissolved in 200 μl of 80% methanol, and filtered using 0.2 μm PTFE (hydrophilic, ADVANTEC, Japan), and the sample was used for high-performance liquid chromatography (HPLC) analysis. A pump system used 4 solvent pumps (quaternary pumps), and a column used ZORBAX SB-18 ([…], 4.6×150 mm) from Agilent, and a mobile phase was analyzed by using gradient elution using water (A, 5% acetonitrile, 0.1% formic acid) and acetonitrile. (B, 0.1% formic acid).
# After treatment with the elicitors for 3 days, the avenanthramides were harvested and HPLC was performed. The elicitors used at this time were methyl jasmonate (MJ), abscisic acid (ABA), salicylic acid (SA), ethephon (ET), methyl viologen (MV), and chitosan (CHI). DW was used as a solvent for MV, CHI, and SA, and EtOH was used as a solvent for ET, MJ, and ABA. A case of treating only DW and EtOH (0.1%), which are solvents of each elicitor, was set as a control.
# Like in Example 3, 10 μM, 20 μM, 25 μM, 50 μM, 75 μM, and 100 μM of MJ and 10 μM, 20 μM, 25 μM, 50 μM, 75 μM, 100 μM, and 300 μM of ABA were treated by concentration on day 2 after germination, recovered on day 5 after germination, then frozen using liquid nitrogen, and stored at −80° C. until extraction and used. As a control, EtOH, a solvent of MJ and ABA, was treated at a concentration of 0.1%. The experimental results were shown in Tables 2 and 3 and FIGS. 4 and 5 below. […]
# AsPAL = assay: qRT-PCR transcriptional expression of avenanthramide biosynthetic gene AsPAL in elicitor-treated oats; conditions: single elicitor treatment, Example 4, FIG. 3
# Procedure: (§1) Specifically, total RNA was isolated from the recovered oats, and cDNA was synthesized from the isolated total RNA using a First-Strand CDNA Synthesis Kit (Fermantas, Canada). By using the synthesized cDNA, qRT-PCR was performed on avenanthramide biosynthesis-related genes.
# (§2) For the qRT-PCR amplification, a Quick Guide from BIOFACT was used, and a process of initial denaturation at 95° C. for 15 minutes and denaturation at 95° C. for 20 seconds, binding and elongation at […] for 40 seconds was repeated 40 times, and melting curve analysis was performed at 65° C. to 95° C. by 1° C. for 0.5 second.
# (§3) Primers for avenanthramides biosynthesis genes and actin qRT-PCR used for the experiment were as follows.
# AsHHT4 = assay: qRT-PCR transcriptional expression of avenanthramide biosynthetic gene AsHHT4 in elicitor-treated oats; conditions: single elicitor treatment, Example 4, FIG. 3
# Procedure: as §1, §2, §3
# [1] = 10 μM elicitor, control EtOH 0.1%
# [2] = 10 μM elicitor, treated day 2, recovered day 5 after germination
# [3] = 20 μM elicitor, control EtOH 0.1%
# [4] = 20 μM elicitor, treated day 2, recovered day 5 after germination
# [5] = 25 μM elicitor, control EtOH 0.1%
# [6] = 25 μM elicitor, treated day 2, recovered day 5 after germination
# [7] = 50 μM elicitor, control EtOH 0.1%
# [8] = 50 μM elicitor, treated day 2, recovered day 5 after germination
# [9] = 75 μM elicitor, control EtOH 0.1%
# [10] = 75 μM elicitor, treated day 2, recovered day 5 after germination
# [11] = 100 μM elicitor, control EtOH 0.1%
# [12] = 100 μM elicitor, treated day 2, recovered day 5 after germination
# [13] = 300 μM elicitor, treated day 2, recovered day 5 after germination
# [14] = Example 3, elicitor treated on day 2 after germination induction for 3 days, concentration not given
# [15] = Example 3, total avenanthramides, control DW for MV, CHI, SA, control EtOH for ET, MJ, ABA
compound,measurement,setting,value
"CC1=CC(=O)CC(C)(C)[C@@]1(O)/C=C/C(C)=C\C(=O)O [ABA, abscisic acid]",Compared to control,Choyang oats; [1],176.85%
same,avnA,Choyang oats; [2],"177.8 mg/kg, FW"
same,avnB,Choyang oats; [2],"299.1 mg/kg, FW"
same,avnC,Choyang oats; [2],"197.11 mg/kg, FW"
same,total,Choyang oats; [2],"674.01 mg/kg, FW"
same,Compared to control,Choyang oats; [3],185.33%
same,avnA,Choyang oats; [4],"185.34 mg/kg, FW"
same,avnB,Choyang oats; [4],"319.67 mg/kg, FW"
same,avnC,Choyang oats; [4],"189.65 mg/kg, FW"
same,total,Choyang oats; [4],"694.66 mg/kg, FW"
same,Compared to control,Choyang oats; [5],225.40%
same,avnA,Choyang oats; [6],"202.56 mg/kg, FW"
same,avnB,Choyang oats; [6],"363.51 mg/kg, FW"
same,avnC,Choyang oats; [6],"226.14 mg/kg, FW"
same,total,Choyang oats; [6],"792.21 mg/kg, FW"
same,Compared to control,Choyang oats; [7],240.45%
same,avnA,Choyang oats; [8],"206.95 mg/kg, FW"
same,avnB,Choyang oats; [8],"385.73 mg/kg, FW"
same,avnC,Choyang oats; [8],"236.19 mg/kg, FW"
same,total,Choyang oats; [8],"828.87 mg/kg, FW"
same,Compared to control,Choyang oats; [9],217.58%
same,avnA,Choyang oats; [10],"211.62 mg/kg, FW"
same,avnB,Choyang oats; [10],"328.63 mg/kg, FW"
same,avnC,Choyang oats; [10],"232.94 mg/kg, FW"
same,total,Choyang oats; [10],"773.19 mg/kg, FW"
same,Compared to control,Choyang oats; [11],184.80%
same,avnA,Choyang oats; [12],"186.05 mg/kg, FW"
same,avnB,Choyang oats; [12],"309.78 mg/kg, FW"
same,avnC,Choyang oats; [12],"197.55 mg/kg, FW"
same,total,Choyang oats; [12],"693.38 mg/kg, FW"
same,Compared to control,"Choyang oats; 300 μM elicitor, control EtOH 0.1%",189.98%
same,avnA,Choyang oats; [13],"193.65 mg/kg, FW"
same,avnB,Choyang oats; [13],"328.02 mg/kg, FW"
same,avnC,Choyang oats; [13],"184.32 mg/kg, FW"
same,total,Choyang oats; [13],"705.99 mg/kg, FW"
same,largest amount of avenanthramides produced,Choyang oats; ABA at a 50 μM concentration (FIG. 5),up to 828.8 mg/kg
same,production of avenanthramides in oats,Choyang oats; ABA at concentrations of 20 to 300 μM,significantly increased
same,production of avenanthramide C,Choyang oats; Example 3,specifically increased the most
same,production of avenanthramides compared to control group,"Choyang oats; CHI, MJ",significantly increased
same,avnA,Choyang oats; [14],"193.78 mg/kg, FW"
same,avnB,Choyang oats; [14],"207.37 mg/kg, FW"
same,avnC,Choyang oats; [14],"241.72 mg/kg, FW"
same,total,Choyang oats; [14],"642.87 mg/kg, FW"
same,Compared to control,Choyang oats; [15],176.42%
same,production of avenanthramides over tested concentrations,Choyang oats,increased at all concentrations
same,synthesis amount / content of avenanthramides in oats compared to other elicitors,Choyang oats,most increased
same,synthesis amount / content of avenanthramides in oats compared to other elicitors,Choyang oats; listed as abscisic acid,increased most
same,expression of AsPAL gene,AsPAL,increased
same,expression of AsHHT4 gene,AsHHT4,increased
"O=P(O)(O)CCCl [ET, ethephon]",avnA,Choyang oats; [14],"86 mg/kg, FW"
same,avnB,Choyang oats; [14],"145.36 mg/kg, FW"
same,avnC,Choyang oats; [14],"74.96 mg/kg, FW"
same,total,Choyang oats; [14],"306.32 mg/kg, FW"
same,Compared to control,Choyang oats; [15],31.71%
"CC/C=C\C[C@H]1C(=O)CC[C@@H]1CC(=O)OC [MJ, methyl jasmonate]",Compared to control,Choyang oats; [1],37.41%
same,avnA,Choyang oats; [2],"93.22 mg/kg, FW"
same,avnB,Choyang oats; [2],"163.98 mg/kg, FW"
same,avnC,Choyang oats; [2],"77.35 mg/kg, FW"
same,total,Choyang oats; [2],"334.55 mg/kg, FW"
same,Compared to control,Choyang oats; [3],45.03%
same,avnA,Choyang oats; [4],"98.32 mg/kg, FW"
same,avnB,Choyang oats; [4],"168.66 mg/kg, FW"
same,avnC,Choyang oats; [4],"86.12 mg/kg, FW"
same,total,Choyang oats; [4],"353.1 mg/kg, FW"
same,Compared to control,Choyang oats; [5],57.97%
same,avnA,Choyang oats; [6],"105.54 mg/kg, FW"
same,avnB,Choyang oats; [6],"200.86 mg/kg, FW"
same,avnC,Choyang oats; [6],"78.2 mg/kg, FW"
same,total,Choyang oats; [6],"384.6 mg/kg, FW"
same,Compared to control,Choyang oats; [7],99.80%
same,avnA,Choyang oats; [8],"147.03 mg/kg, FW"
same,avnB,Choyang oats; [8],"222.81 mg/kg, FW"
same,avnC,Choyang oats; [8],"116.59 mg/kg, FW"
same,total,Choyang oats; [8],"486.43 mg/kg, FW"
same,Compared to control,Choyang oats; [9],137.67%
same,avnA,Choyang oats; [10],"179.81 mg/kg, FW"
same,avnB,Choyang oats; [10],"268.73 mg/kg, FW"
same,avnC,Choyang oats; [10],"130.08 mg/kg, FW"
same,total,Choyang oats; [10],"578.62 mg/kg, FW"
same,Compared to control,Choyang oats; [11],88.13%
same,avnA,Choyang oats; [12],"138.82 mg/kg, FW"
same,avnB,Choyang oats; [12],"218.47 mg/kg, FW"
same,avnC,Choyang oats; [12],"100.73 mg/kg, FW"
same,total,Choyang oats; [12],"458.02 mg/kg, FW"
same,production of avenanthramides compared to control group,"Choyang oats; CHI, MJ",significantly increased
same,avnA,Choyang oats; [14],"190.07 mg/kg, FW"
same,avnB,Choyang oats; [14],"260.43 mg/kg, FW"
same,avnC,Choyang oats; [14],"132.39 mg/kg, FW"
same,total,Choyang oats; [14],"582.89 mg/kg, FW"
same,Compared to control,Choyang oats; [15],150.63%
same,production of avenanthramides over tested concentrations,Choyang oats,increased at all concentrations
same,synthesis amount / content of avenanthramides in oats compared to other elicitors,Choyang oats,most increased
same,synthesis amount / content of avenanthramides in oats compared to other elicitors,Choyang oats; listed as methyl jasmonate,increased most
same,largest amount of avenanthramides produced,Choyang oats; MJ at a concentration of 75 μM (FIG. 4),up to 578.6 mg/kg
same,production of avenanthramides in oats,Choyang oats; MJ at concentrations of 10 μM to 100 μM,significantly increased
same,expression of AsPAL gene,AsPAL,increased
same,expression of AsHHT4 gene,AsHHT4,increased
"C[n+]1ccc(-c2cc[n+](C)cc2)cc1 [MV, methyl viologen]",avnA,Choyang oats; [14],"95.37 mg/kg, FW"
same,avnB,Choyang oats; [14],"169.01 mg/kg, FW"
same,avnC,Choyang oats; [14],"84.14 mg/kg, FW"
same,total,Choyang oats; [14],"348.52 mg/kg, FW"
same,Compared to control,Choyang oats; [15],3.74%
"O=C(O)c1ccccc1O [SA, salicylic acid]",production of avenanthramides compared to control group,"Choyang oats; CHI, MJ",slightly decreased
same,avnA,Choyang oats; [14],"90.53 mg/kg, FW"
same,avnB,Choyang oats; [14],"149.58 mg/kg, FW"
same,avnC,Choyang oats; [14],"64.34 mg/kg, FW"
same,total,Choyang oats; [14],"304.45 mg/kg, FW"
same,Compared to control,Choyang oats; [15],−9.38%
